According to ChEMBL document CHEMBL5614421, “Structure-activity relationship study of Pseudellone C as anti-glioma agents by targeting TNF/TNFR signaling pathway” (Eur J Med Chem, 2024):

Experiments:
U-87 MG [1] = test: Induction of apoptosis in human U-87 MG cells assessed as early apoptotic cells at 20 uM incubated for 24 hrs by Annexin V-APC/7-AAD staining based flow cytometric analysis (reference value: 1.59 %); assay type: functional, U-87MG ATCC
LN-229 [2] = test: Antiproliferative activity against human LN-229 cells assessed as inhibition of cell growth incubated for 68 hrs by CCK-8 assay; assay type: functional, cell-based; details: LN-229, 68 h
LN-229 [3] = test: Induction of apoptosis in human LN-229 cells assessed as early apoptotic cells at 20 uM incubated for 12 hrs by Annexin V-APC/7-AAD staining based flow cytometric analysis (reference value: 2.46 %); assay type: functional
LN-229 [4] = test: Induction of apoptosis in human LN-229 cells assessed as late apoptotic cells at 5 uM incubated for 24 hrs by Annexin V-APC/7-AAD staining based flow cytometric analysis (reference value: 3.56 %); assay type: functional
U-87 MG [5] = test: Induction of apoptosis in human U-87 MG cells assessed as early apoptotic cells at 20 uM incubated for 24 hrs in presence of R7050 by Annexin V-APC/7-AAD staining based flow cytometric analysis (reference value: 3.44 %); assay type: functional, U-87MG ATCC
LN-229 [6] = test: Induction of apoptosis in human LN-229 cells at 20 uM incubated for 24 hrs by Annexin V-APC/7-AAD staining based flow cytometric analysis relative to control; assay type: functional
[7] = Drug concentration in C57BL/6J mouse brain at 9 mg/kg,iv administration measured after 15 mins by LC-MS analysis; assay type: ADME, organism-based; details: read-out: Ct
U-87 MG [8] = test: Induction of apoptosis in human U-87 MG cells at 20 uM incubated for 24 hrs by Annexin V-APC/7-AAD staining based flow cytometric analysis relative to control; assay type: functional, U-87MG ATCC
LN-229 [9] = test: Induction of apoptosis in human LN-229 cells assessed as early apoptotic cells at 20 uM incubated for 48 hrs by Annexin V-APC/7-AAD staining based flow cytometric analysis (reference value: 2.46 %); assay type: functional
LN-229 [10] = test: Induction of apoptosis in human LN-229 cells assessed as upregulation of cleaved caspase-3 expression incubated for 24 hrs by Western blot analysis; assay type: functional, cell-based
U-87 MG [11] = test: Induction of apoptosis in human U-87 MG cells assessed as viable cells at 20 uM incubated for 24 hrs by Annexin V-APC/7-AAD staining based flow cytometric analysis (reference value: 94 %); assay type: functional, U-87MG ATCC; details: read-out: Activity
U-87 MG [12] = test: Induction of apoptosis in human U-87 MG cells at 20 uM incubated for 24 hrs in presence of R7050 by Annexin V-APC/7-AAD staining based flow cytometric analysis relative to control; assay type: functional, U-87MG ATCC
U-87 MG [13] = test: Induction of apoptosis in human U-87 MG cells assessed as late apoptotic cells at 20 uM incubated for 24 hrs by Annexin V-APC/7-AAD staining based flow cytometric analysis (reference value: 4.22 %); assay type: functional, U-87MG ATCC
LN-229 [14] = test: Induction of apoptosis in human LN-229 cells assessed as viable cells at 20 uM incubated for 24 hrs by Annexin V-APC/7-AAD staining based flow cytometric analysis (reference value: 92.3 %); assay type: functional; details: read-out: Activity
U-87 MG [15] = test: Antiproliferative activity against human U-87 MG cells assessed as inhibition of cell growth incubated for 68 hrs by CCK-8 assay; assay type: functional, cell-based, U-87MG ATCC
LN-229 [16] = test: Induction of apoptosis in human LN-229 cells assessed as early apoptotic cells at 20 uM incubated for 24 hrs by Annexin V-APC/7-AAD staining based flow cytometric analysis (reference value: 2.46 %); assay type: functional
LN-229 [17] = test: Induction of apoptosis in human LN-229 cells assessed as necrotic cells at 20 uM incubated for 24 hrs by Annexin V-APC/7-AAD staining based flow cytometric analysis (reference value: 0.7 %); assay type: functional
LN-229 [18] = test: Induction of apoptosis in human LN-229 cells assessed as necrotic cells at 10 uM incubated for 24 hrs by Annexin V-APC/7-AAD staining based flow cytometric analysis (reference value: 0.56 %); assay type: functional
LN-229 [19] = test: Induction of apoptosis in human LN-229 cells assessed as early apoptotic cells at 5 uM incubated for 24 hrs by Annexin V-APC/7-AAD staining based flow cytometric analysis (reference value: 0.45 %); assay type: functional

CCCCCCCNC(=O)[C@H](Cc1c[nH]c2ccccc12)NC(=O)C(C)(c1c[nH]c2ccccc12)c1c[nH]c2ccccc12
Activity (U-87 MG [1]): 13.7% | IC50 (LN-229 [2]): 10.8 µM | Activity (LN-229 [3]): 1.76% | Activity (LN-229 [4]): 3.7% | Activity (U-87 MG [5]): 8.66% | Activity (LN-229 [6]): 31.44% | concentration at 0.25 h [7]: 91 ng/g | Activity (U-87 MG [8]): 24.89% | Activity (LN-229 [9]): 18.5% | Activity (LN-229 [10]): Dose-Dependent Effect | viability at 20 µM (U-87 MG [11]): 74.3% | Activity (U-87 MG [12]): 9.37% | Activity (U-87 MG [13]): 11.6% | viability at 20 µM (LN-229 [14]): 66.2% | IC50 (U-87 MG [15]): 8.2 µM | Activity (LN-229 [16]): 13% | Activity (LN-229 [17]): 0.87% | Activity (LN-229 [18]): 1.95% | Activity (LN-229 [19]): 0.82%
